From patent US20250171430A1, “PYRAZOLYL COMPOUNDS AS KV7 CHANNEL ACTIVATORS” (Biohaven Therapeutics Ltd., priority 2022, published 2025)

Target: T1, Kv7.2/7.3 (Homo sapiens, UniProt O43525+O43526)
T1 construct: Kv7.2 tetracycline-induced, Kv7.3 constitutive
Assay: Kv7.2/7.3 Activation Assay (Thallium Flux Assay)
Assay type: cell-based
Settings: hKV7.2/7.3 cell line; test compound at single concentration of 10 μM; fluorescence at 90 sec normalized to positive control (retigabine, 30 μM)
Summary of the method: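 Single-point activity at 10 μM (0.1% DMSO, HEPES-buffered saline, pH 7.4) was scored from fluorescence at 90 s relative to 30 μM retigabine. Categories were none <0.15, moderate 0.15-0.7 and high >0.7. Thallium influx after stimulus addition was followed with FluxOR II Green dye in hKv7.2/7.3 cells, Kv7.2 expressed under overnight tetracycline (10 ng/mL) induction.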

Row | SMILES | Kv7.2/7.3 Activity
1 | Cn1nc(NC(=O)COC(C)(C)C)c(C2CCC2)c1-c1ccc(F)cc1 [Compound 108, 2-(tert-butoxy)-N-(4-cyclobutyl-5-(4-fluorophenyl)-1-methyl-1H-pyrazol-3-yl)acetamide] | + (“+” Moderate Activity 0.15-0.7)
2 | Cn1nc(NC(=O)CC(C(F)(F)F)C(F)(F)F)c(C2CCC2)c1-c1ccc(F)cc1 [Compound 109, N-(4-cyclobutyl-5-(4-fluorophenyl)-1-methyl-1H-pyrazol-3-yl)-4,4,4-trifluoro-3-(trifluoromethyl)butanamide] | ++ (“++” High Activity ≥ 0.7)
3 | Cn1nc(NC(=O)[C@H]2C[C@]2(C)C(F)F)c(C2CCC2)c1-c1ccc(F)cc1 [Compound 111, (1S,2S)-N-(4-cyclobutyl-5-(4-fluorophenyl)-1-methyl-1H-pyrazol-3-yl)-2-(difluoromethyl)-2-methylcyclopropane-1-carboxamide] | ++ (“++” High Activity ≥ 0.7)
4 | Cn1nc(NC(=O)[C@H]2C[C@@]2(C)C(F)F)c(C2CCC2)c1-c1ccc(F)cc1 [Compound 112, (1S,2R)-N-(4-cyclobutyl-5-(4-fluorophenyl)-1-methyl-1H-pyrazol-3-yl)-2-(difluoromethyl)-2-methylcyclopropane-1-carboxamide] | ++ (“++” High Activity ≥ 0.7)
5 | C[C@H](C(=O)Nc1nn(C)c(-c2ccc(F)cc2)c1C1CCC1)C(C)(C)C [Compound 113, (S)-N-(4-cyclobutyl-5-(4-fluorophenyl)-1-methyl-1H-pyrazol-3-yl)-2,3,3-trimethylbutanamide] | ++ (“++” High Activity ≥ 0.7)
6 | C[C@@H](C(=O)Nc1nn(C)c(-c2ccc(F)cc2)c1C1CCC1)C(C)(C)C [Compound 114, (R)-N-(4-cyclobutyl-5-(4-fluorophenyl)-1-methyl-1H-pyrazol-3-yl)-2,3,3-trimethylbutanamide] | ++ (“++” High Activity ≥ 0.7)
7 | Cn1nc(NC(=O)C[C@H](O)C(C)(C)C)c(C2CCC2)c1-c1ccc(F)cc1 [Compound 115, (S)-N-(4-cyclobutyl-5-(4-fluorophenyl)-1-methyl-1H-pyrazol-3-yl)-3-hydroxy-4,4-dimethylpentanamide] | + (“+” Moderate Activity 0.15-0.7)
8 | Cn1nc(NC(=O)C[C@](C)(O)C2CC(F)(F)C2)c(C2CCC2)c1-c1ccc(F)cc1 [Compound 116, (S)-N-(4-cyclobutyl-5-(4-fluorophenyl)-1-methyl-1H-pyrazol-3-yl)-3-(3,3-difluorocyclobutyl)-3-hydroxybutanamide] | + (“+” Moderate Activity 0.15-0.7)
9 | Cn1nc(NC(=O)C(F)(F)C(C)(O)c2ccccc2)c(C2CCC2)c1-c1ccc(F)cc1 (stereo not shown) [Compound 117, N-(4-cyclobutyl-5-(4-fluorophenyl)-1-methyl-1H-pyrazol-3-yl)-2,2-difluoro-3-hydroxy-3-phenylbutanamide] | ++ (“++” High Activity ≥ 0.7)
10 | Cn1nc(NC(=O)[C@H]2C[C@@H](C(F)(F)F)C2)c(C2CCC2)c1-c1ccc(F)cc1 [Compound 118, (1S,3S)-N-(4-cyclobutyl-5-(4-fluorophenyl)-1-methyl-1H-pyrazol-3-yl)-3-(trifluoromethyl)cyclobutane-1-carboxamide] | ++ (“++” High Activity ≥ 0.7)
11 | Cn1nc(NC(=O)C2(C(F)(F)F)CCC2)c(C2CCC2)c1-c1ccc(F)cc1 [Compound 124, N-(4-cyclobutyl-5-(4-fluorophenyl)-1-methyl-1H-pyrazol-3-yl)-1-(trifluoromethyl)cyclobutane-1-carboxamide] | + (“+” Moderate Activity 0.15-0.7)
12 | Cn1nc(NC(=O)C2(C(F)(F)F)CC2)c(C2CCC2)c1-c1ccc(F)cc1 [Compound 126, N-(4-cyclobutyl-5-(4-fluorophenyl)-1-methyl-1H-pyrazol-3-yl)-1-(trifluoromethyl)cyclopropane-1-carboxamide] | ++ (“++” High Activity ≥ 0.7)
13 | C[C@H](C(=O)Nc1nn(C)c(-c2ccc(F)cc2)c1C1CCC1)C1(C(F)(F)F)CC1 [Compound 127, (S)-N-(4-cyclobutyl-5-(4-fluorophenyl)-1-methyl-1H-pyrazol-3-yl)-2-(1-(trifluoromethyl)cyclopropyl)propanamide] | ++ (“++” High Activity ≥ 0.7)
14 | C[C@@H](C(=O)Nc1nn(C)c(-c2ccc(F)cc2)c1C1CCC1)C1(C(F)(F)F)CC1 [Compound 128, (R)-N-(4-cyclobutyl-5-(4-fluorophenyl)-1-methyl-1H-pyrazol-3-yl)-2-(1-(trifluoromethyl)cyclopropyl)propanamide] | ++ (“++” High Activity ≥ 0.7)
15 | Cn1nc(NC(=O)C2(O)CC2)c(C2CCC2)c1-c1ccc(F)cc1 [Compound 130, N-(4-cyclobutyl-5-(4-fluorophenyl)-1-methyl-1H-pyrazol-3-yl)-1-hydroxycyclopropane-1-carboxamide] | − (“−” No Activity < 0.15)
16 | Cn1nc(NC(=O)C2(C(C)(F)F)CC2)c(C2CCC2)c1-c1ccc(F)cc1 [Compound 131, N-(4-cyclobutyl-5-(4-fluorophenyl)-1-methyl-1H-pyrazol-3-yl)-1-(1,1-difluoroethyl)cyclopropane-1-carboxamide] | ++ (“++” High Activity ≥ 0.7)
17 | CC(C)C1(C(=O)Nc2nn(C)c(-c3ccc(F)cc3)c2C2CCC2)CC1 [Compound 136, N-(4-cyclobutyl-5-(4-fluorophenyl)-1-methyl-1H-pyrazol-3-yl)-1-isopropylcyclopropane-1-carboxamide] | ++ (“++” High Activity ≥ 0.7)
18 | Cn1nc(NC(=O)C2(C3CC3)CC2)c(C2CCC2)c1-c1ccc(F)cc1 [Compound 137, N-(4-cyclobutyl-5-(4-fluorophenyl)-1-methyl-1H-pyrazol-3-yl)-[1,1'-bi(cyclopropane)]-1-carboxamide] | ++ (“++” High Activity ≥ 0.7)
19 | CC(C)CC1(C(=O)Nc2nn(C)c(-c3ccc(F)cc3)c2C2CCC2)CC1 [Compound 138, N-(4-cyclobutyl-5-(4-fluorophenyl)-1-methyl-1H-pyrazol-3-yl)-1-isobutylcyclopropane-1-carboxamide] | ++ (“++” High Activity ≥ 0.7)
20 | Cn1nc(NC(=O)[C@H]2CC2(F)F)c(C2(C)CCC2)c1-c1ccc(F)cc1 [Compound 139, (R)-2,2-difluoro-N-(5-(4-fluorophenyl)-1-methyl-4-(1-methylcyclobutyl)-1H-pyrazol-3-yl)cyclopropane-1-carboxamide] | ++ (“++” High Activity ≥ 0.7)

Results, then the compound that gave them:

Row | Kv7.2/7.3 Activity | SMILES
21 | ++ (“++” High Activity ≥ 0.7) | Cn1nc(NC(=O)[C@H]2CC2(C)C)c(C2CCC2)c1-c1ccc(F)cc1 [Compound 110, (S)-N-(4-cyclobutyl-5-(4-fluorophenyl)-1-methyl-1H-pyrazol-3-yl)-2,2-dimethylcyclopropane-1-carboxamide]
22 | ++ (“++” High Activity ≥ 0.7) | Cn1nc(NC(=O)[C@H]2C[C@H](C(F)(F)F)C2)c(C2CCC2)c1-c1ccc(F)cc1 [Compound 119, (1R,3R)-N-(4-cyclobutyl-5-(4-fluorophenyl)-1-methyl-1H-pyrazol-3-yl)-3-(trifluoromethyl)cyclobutane-1-carboxamide]
23 | ++ (“++” High Activity ≥ 0.7) | Cn1nc(NC(=O)[C@@H]2CCC(F)(F)C2)c(C2CCC2)c1-c1ccc(F)cc1 [Compound 120, (R)-N-(4-cyclobutyl-5-(4-fluorophenyl)-1-methyl-1H-pyrazol-3-yl)-3,3-difluorocyclopentane-1-carboxamide]
24 | ++ (“++” High Activity ≥ 0.7) | Cn1nc(NC(=O)C2CC(C)(C)C2)c(C2CCC2)c1-c1ccc(F)cc1 [Compound 121, N-(4-cyclobutyl-5-(4-fluorophenyl)-1-methyl-1H-pyrazol-3-yl)-3,3-dimethylcyclobutane-1-carboxamide]
25 | ++ (“++” High Activity ≥ 0.7) | Cn1nc(NC(=O)[C@H]2C[C@@H](C)C2)c(C2CCC2)c1-c1ccc(F)cc1 [Compound 122, (1S,3S)-N-(4-cyclobutyl-5-(4-fluorophenyl)-1-methyl-1H-pyrazol-3-yl)-3-methylcyclobutane-1-carboxamide]
26 | ++ (“++” High Activity ≥ 0.7) | Cn1nc(NC(=O)[C@H]2C[C@H](C)C2)c(C2CCC2)c1-c1ccc(F)cc1 [Compound 123, (1R,3R)-N-(4-cyclobutyl-5-(4-fluorophenyl)-1-methyl-1H-pyrazol-3-yl)-3-methylcyclobutane-1-carboxamide]
27 | ++ (“++” High Activity ≥ 0.7) | Cn1nc(NC(=O)C2CC(F)(F)C2)c(C2CCC2)c1-c1ccc(F)cc1 [Compound 125, N-(4-cyclobutyl-5-(4-fluorophenyl)-1-methyl-1H-pyrazol-3-yl)-3,3-difluorocyclobutane-1-carboxamide]
28 | ++ (“++” High Activity ≥ 0.7) | C[C@H](C(=O)Nc1nn(C)c(-c2ccc(F)cc2)c1C1CCC1)C1CC(F)(F)C1 [Compound 129, (S)-N-(4-cyclobutyl-5-(4-fluorophenyl)-1-methyl-1H-pyrazol-3-yl)-2-(3,3-difluorocyclobutyl)propanamide]
29 | + (“+” Moderate Activity 0.15-0.7) | C[C@@H](C(=O)Nc1nn(C)c(-c2ccc(F)cc2)c1C1CCC1)C1CC(F)(F)C1 [Compound 132, (R)-N-(4-cyclobutyl-5-(4-fluorophenyl)-1-methyl-1H-pyrazol-3-yl)-2-(3,3-difluorocyclobutyl)propanamide]
30 | ++ (“++” High Activity ≥ 0.7) | Cn1nc(NC(=O)[C@H]2CC2(F)F)c(C2CCC2)c1-c1ccc(F)cc1 [Compound 133, (R)-N-(4-cyclobutyl-5-(4-fluorophenyl)-1-methyl-1H-pyrazol-3-yl)-2,2-difluorocyclopropane-1-carboxamide]
31 | − (“−” No Activity < 0.15) | Cn1nc(NC(=O)[C@@H]2CC2(F)F)c(C2CCC2)c1-c1ccc(F)cc1 [Compound 134, (S)-N-(4-cyclobutyl-5-(4-fluorophenyl)-1-methyl-1H-pyrazol-3-yl)-2,2-difluorocyclopropane-1-carboxamide]
